Test [1] deals with T1, MC4r (Homo sapiens, UniProt P32245). Briefly: cAMP functional study in human MC4r expression system approximating maximal physiologic receptor densities. The test is classed as cell-based. More on the design: host or cells: TREx-293. Particulars: low receptor density human MC4r system; for Emax: read-out: relative efficacy, compared to NDP-α-MSH. Here is the method:
Assay for Agonist Activity. Accumulation of intracellular cAMP was examined as a measure of the ability of the peptides of the present invention to elicit a functional response in HEK-293 cells that express MC4-R. Confluent HEK-293 cells that express recombinant hMC4-R were detached from culture plates by incubation in enzyme-free cell dissociation buffer. Dispersed cells were suspended in Hanks' Balanced Salt Solution containing 10 mM HEPES (pH 7.5), 1 mM MgCl2, 1 mM glutamine, 0.5% albumin and 0.3 mM 3-isobutyl-1-methyl-xanthine (IBMX), a phosphodiesterase inhibitor. The cells were plated in 96-well plates at a density of 0.5×10^5 cells per well and pre-incubated for 10 minutes. Cells were exposed for 15 minutes at 37° C. to peptides of the present invention dissolved in DMSO (final DMSO concentration of 1%) at a concentration range of 0.05-5000 nM in a total assay volume of 200 μL. NDP-α-MSH was used as the reference agonist. cAMP levels were determined by an HTRF® cAMP cell-based assay system from Cisbio Bioassays utilizing cryptate-labeled anti-cAMP and d2-labeled cAMP, with plates read on a Perkin-Elmer Victor plate reader at […]. Data analysis was performed by nonlinear regression analysis with Graph-Pad Prism® software. The maximum efficacies of the test peptides of the present invention were compared to that achieved by the reference melanocortin agonist NDP-αMSH.
Low Receptor Density Systems. In functional studies preferably a human MC4r expression system approximating maximal human physiologic receptor densities is employed. In one aspect, a tetracycline-regulated mammalian expression system that uses regulatory elements from the E. coli Tn10-encoded tetracycline (Tet) resistance operon was employed (T-REx™ System, Invitrogen). By use of the T-REx™ System, expression of the gene of interest, the human MC4-R gene, was repressed in the absence of tetracycline or doxycycline and induced in the presence of tetracycline or doxycycline, with receptor density being dependent on the concentration of tetracycline or doxycycline. See generally Yao F. et al: Tetracycline repressor, tetR, rather than the tetR-mammalian cell transcription factor fusion derivatives, regulates inducible gene expression in mammalian cells. Hum. Gene Ther. 9:1939-1950 (1998), incorporated here by reference. Regulation was based on the binding of tetracycline or doxycycline, a derivative of tetracycline, to the Tet repressor and derepression of the promoter controlling expression of the human MC4-R gene. In general tetracycline or related regulators, such as tetracycline-derivatives, may be used to induce the gene expression. An inducible expression plasmid for expression of human MC4-R gene under the control of the strong human cytomegalovirus immediate-early (CMV) promoter and two tetracycline operator 2 (TetO2) sites was employed, together with a regulatory plasmid, pcDNA6/TR, which encodes the Tet repressor (TetR) under the control of the human SV40 promoter. Thus, expression of the human MC4-R gene from the inducible expression vector was controlled by the strong CMV promoter into which 2 copies of the tet operator 2 (TetO2) sequence had been inserted in tandem. The TetO2 sequences consisted of 2 copies of 19-nucleotide sequence separated by a 2 base pair spacer. Each 19 nucleotide TetO2 sequence served as the binding site for 2 molecules of the Tet repressor. The expression vector pcDNA4/TO/MC4R was introduced into TREx-293 (Invitrogen, R710-07), a cell line stably expressing the tetracycline repressor pcDNA6/TR using lipofectamin 2000 reagent (Invitrogen, 11668-019). Alternatively, both the expression vector and repressor are introduced into host cells by standard transformation or transfection methods.

The target in test [2] is T1, MC4r. Briefly: Competitive inhibition binding assay, MC4r. More on the design: expressed in transfected cells; host or cells: HEK-293 (membrane homogenates). As to conditions: binding studies. As for the experimental part:
A competitive inhibition binding assay is performed using membrane homogenates prepared from HEK-293 cells that express recombinant hMC1ra, hMC4r, hMC3r, or hMC5r, and from B16-F10 mouse melanoma cells (containing endogenous MC1r). In the examples that follow, all values are for human recombinant receptors unless otherwise noted. Assays are performed in 96 well GF/B Millipore multiscreen filtration plates (MAFB NOB10) pre-coated with 0.5% bovine serum albumin (Fraction V). […] After incubation for 60 to 90 minutes at 37° C., the assay mixture is filtered and the membranes washed three times with ice-cold buffer. Filters are dried and counted in a gamma counter for bound radioactivity.
Maximal specific binding (100%) is defined as the difference in radioactivity (cpm) bound to cell membranes in the absence and presence of 1 μM NDP-α-MSH. […] Each assay is conducted in duplicate or triplicate and the actual mean values are described, with results less than 0% reported as 0%. Ki values for test compounds are determined using Graph-Pad Prism® curve-fitting software.
Competitive Binding Assay Using Eu-NDP-α-MSH. Alternatively, a competitive inhibition binding assay is performed employing Eu-NDP-α-MSH (PerkinElmer Life Sciences catalog No. AD0225) with determination by time-resolved fluorometry (TRF) of the lanthanide chelate. […] After incubation for 90 minutes at 37° C., the reaction was stopped by filtration over Acro Well 96-well filter plates (Pall Life Sciences). The filter plates were washed 4 times with 200 μL of ice-cold phosphate-buffered saline. DELFIA Enhancement solution (PerkinElmer Life Sciences) was added to each well. The plates were incubated on a shaker for 15 minutes and read at 340 nm excitation and 615 nm emission wavelengths. Each assay was conducted in duplicate and mean values were utilized. Ki values were determined by curve-fitting with Graph-Pad Prism® software using a one-site fixed-slope competition binding model.

Test [3] concerns C57BL/6 male DIO mice. Briefly: Body weight and food intake in vivo study in diet induced obese mice. As to conditions: for Body Weight Change (%) Mean / Food Intake - 24 Hours (g) Mean: 1 mg/kg subcutaneous twice daily. Further details: species or system mouse. Here is the method:
Compound 7.1 was assessed in a body weight and food intake in vivo study in diet induced obese […] mice. C57BL/6 male DIO mice were utilized, that were 17 weeks of age on arrival. Animals were pre-conditioned on a high-fat diet for 11 weeks by Jackson Labs. […] Animals were single housed within a limited access rodent facility, and provided ad libitum with a commercial rodent diet and free access to drinking water. Animals were randomized into five groups, a vehicle group, three dose levels of compound 7.1 (3 mg/kg, 10 mg/kg and 30 mg/kg), and Peptide A, a positive control cyclic peptide of the formula Ac-Arg-cyclo(Orn-Asn-D-Phe-Arg-Trp-Glu)-NH2. Following three days of sham dosing, animals were dosed for three days, with vehicle or Compound 7.1 dosed orally once daily at within one hour of lights out in the AM, and Peptide A dosed by subcutaneous injection twice daily within one hour before lights out and six hours after lights out. Body weights were measured one hour prior to lights out, and feed weights were measured both one hour prior to lights out and six hours post lights out.
*p<0.05 vs. sham (vehicle control) using two-way ANOVA followed by Dunnett's post-test.
**p<0.01 vs sham (vehicle control) using two-way ANOVA followed by Dunnett's post-test.

Marks after values point to notes of the source that are not given here.

T1 sequence (P32245 whole entry): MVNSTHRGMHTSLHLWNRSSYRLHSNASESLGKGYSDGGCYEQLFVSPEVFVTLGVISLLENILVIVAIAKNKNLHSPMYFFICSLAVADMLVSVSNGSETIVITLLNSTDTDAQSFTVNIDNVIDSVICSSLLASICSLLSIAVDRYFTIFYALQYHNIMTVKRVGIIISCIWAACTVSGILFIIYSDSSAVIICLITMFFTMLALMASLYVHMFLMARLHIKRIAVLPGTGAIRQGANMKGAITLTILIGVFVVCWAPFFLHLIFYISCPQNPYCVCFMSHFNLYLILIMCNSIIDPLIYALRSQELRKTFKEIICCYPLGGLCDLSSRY

As to `CC(=O)N1CCC(N(CC(C)C)N2CCN(C(=O)[C@@H](Cc3ccc(Cl)cc3)NC(=O)C3(N)CCCC3)CC2)CC1` [Compound 7.4, N-[(1R)-2-[4-[(1-acetyl-4-piperidyl)-isobutyl-amino]piperazin-1-yl]-1-[(4-chlorophenyl)methyl]-2-oxo-ethyl]-1-amino-cyclopentanecarboxamide], the Emax in test [1] was found to be 10%. For the same molecule, in test [2], affinity was put at a Ki of 4 nM.
For `CC(=O)N1CCC(N(CC(C)C)N2CCN(C(=O)[C@@H](Cc3ccc(Cl)cc3)NC(=O)C3(C)CCCN3)CC2)CC1` (stereo partly drawn) [Compound 7.11, N-[(1R)-2-[4-[(1-acetyl-4-piperidyl)-isobutyl-amino]piperazin-1-yl]-1-[(4-chlorophenyl)methyl]-2-oxo-ethyl]-2-methyl-pyrrolidine-2-carboxamide], in test [1], it took 6 nM to reach a half-maximal effect (EC50) and the Emax is 13%. Besides, in test [2], the affinity, expressed as Ki, was 6 nM.
As to `CC(=O)N1CCC(N(CC(C)C)N2CCN(C(=O)[C@@H](Cc3ccc(Cl)cc3)NC(=O)C3(N)CCC3)CC2)CC1` [Compound 7.3, N-[(1R)-2-[4-[(1-acetyl-4-piperidyl)-isobutyl-amino]piperazin-1-yl]-1-[(4-chlorophenyl)methyl]-2-oxo-ethyl]-1-amino-cyclobutanecarboxamide], the Emax in test [1] was found to be 10%. Also, in test [2], the Ki turned out to be 3 nM.
In the same order, the values of `CC(=O)N1CCC(N(CC(C)C)N2CCN(C(=O)[C@@H](Cc3ccc(Cl)cc3)NC(=O)C3(N)CCCCCC3)CC2)CC1` [Compound 7.7, N-[(1R)-2-[4-[(1-acetyl-4-piperidyl)-isobutyl-amino]piperazin-1-yl]-1-[(4-chlorophenyl)methyl]-2-oxo-ethyl]-1-amino-cycloheptanecarboxamide] are 8% and 3 nM.
As for `CC(=O)N1CCC(N(CC(C)C)N2CCN(C(=O)[C@@H](Cc3ccc(Cl)cc3)NC(=O)C3(N)CCCCC3)CC2)CC1` [Compound 7.5, N-[(1R)-2-[4-[(1-acetyl-4-piperidyl)-isobutyl-amino]piperazin-1-yl]-1-[(4-chlorophenyl)methyl]-2-oxo-ethyl]-1-amino-cyclohexanecarboxamide], in test [1], a half-maximal effect (EC50) was put at 9 nM and the Emax was determined as 15%. The same molecule had a Ki in test [2] of 4 nM.
As to `CNC(C)(C)C(=O)N[C@H](Cc1ccc(Cl)cc1)C(=O)N1CCN(N(CC(C)C)C2CCN(C(C)=O)CC2)CC1` [Compound 7.9, N-[(1R)-2-[4-[(1-acetyl-4-piperidyl)-isobutyl-amino]piperazin-1-yl]-1-[(4-chlorophenyl)methyl]-2-oxo-ethyl]-2-methyl-2-(methylamino)propanamide], the “relative efficacy, compared to NDP-α-MSH” value in test [1] stood at 19%.
For the molecule “Ac-Arg-cyclo(Orn-Asn-D-Phe-Arg-Trp-Glu)-NH2 [Peptide A]”, the “Body Weight Change (%) Mean” value is listed as 0% in test [3] (Day 0), −5.69** % in test [3] (Day 1), −8.37** % in test [3] (Day 2) and −8.78** % in test [3] (Day 3). The “Food Intake - 24 Hours (g) Mean” value in test [3] (Day 0, 24 hours post lights out) is given as 0.99** g; in test [3] (Day 1, 24 hours post lights out), 1.10** g; in test [3] (Day 2, 24 hours post lights out), 1.67** g. In test [3] (1 mg/kg, entirety of the study, compared with sham animals), the “effect on feed intake at 24 hours post lights out (in words)” value was “significantly inhibited feed intake”. Further, in test [3] (two times daily 1 mg/kg, throughout the study), the “effect on body weight (in words)” value is recorded as “decreased animal body weights”.
With `CCC(N)(CC)C(=O)N[C@H](Cc1ccc(Cl)cc1)C(=O)N1CCN(N(CC(C)C)C2CCN(C(C)=O)CC2)CC1` [Compound 7.6, N-[(1R)-2-[4-[(1-acetyl-4-piperidyl)-isobutyl-amino]piperazin-1-yl]-1-[(4-chlorophenyl)methyl]-2-oxo-ethyl]-2-amino-2-ethyl-butanamide], in test [1], the concentration for a half-maximal effect (EC50) turned out to be 25 nM and the Emax is 34%. In test [2], this molecule displayed a Ki of 13 nM.

A word on the Ki: it is a dissociation constant, usually derived from enzyme kinetics or from competition with a known ligand. Low readings indicate a stronger hold on the target, high ones a looser hold on the target. By EC50 is commonly meant the concentration giving half of the maximal effect. The low end stands for greater potency, the high end for weaker potency.
